Earlier results on one molecule are cited in patent publication US20230349922A1, “H2 Blockers Targeting Liver Macrophages for the Prevention and Treatment of Liver Disease and Cancer” (Université de Strasbourg, priority 2020, published 2023).

The conditions of the data set: patients, after a 300 mg oral dose; cited from earlier work.

Turning to `CNC(=C[N+](=O)[O-])NCCSCc1csc(CN(C)C)n1` [Nizatidine, N-[2-[[[2-[(dimethylamino)methyl]-4-thizaolyl]methyl]thio]ethyl]-N′-methyl-2-nitro-1,1-ethene-diamine], the plasma concentrations was 2000 to 4000 nM.
